Key:
Format in all cases: cell-based, mouse
EC d6 [1] = assay: ZO1 tight junction immunofluorescence; details: analysed 2 days later
EC d6 [2] = assay: Mitochondrial membrane potential (TMRM-MitoTracker Green); details: EC d6 treated 24 h
Description: Mitochondrial membrane potential (ΔΨm) was analyzed by live-cell imaging using TMRM-MitoTracker Green co-staining. Cells were seeded and differentiated on Poly-D-Lysine-fibronectine-coated live-imaging dishes. For staining, cells were incubated with 200nM MitoTracker Green (Invitrogen) and 50 nM TMRM (Invitrogen) in DMEM (30 min, 37 °C, 5% CO2). After washing with PBS, live-cell microscopy was performed using a spinning disc confocal microscope (PerkinElmer) equipped with a 60x oil-immersion objective (N.A = 1.49) and a Hamamatsu C9100 camera (1000 × 1000 pixel) (excitation (MitoTracker Green): 488 nm, excitation (TMRM): 561 nm). The cells were kept at 37 °C in OptiMEM supplemented with 10 mM HEPES during imaging. The images were obtained at emission wavelength of 527 nm (W55) and 615 nm (W70) for 488 nm and 561 nm excitation, respectively.

EC d4 [3] = assay: VE-cadherin cell-cell junction immunostaining; details: EC d4 treated 48 h
[4] = system: EC d4 (endothelial progenitor cells); assay: RT-qPCR mRNA expression; details: for Flk1 mRNA / Nanog mRNA / Oct4 mRNA / Pecam1 mRNA / Tie1 mRNA / VE-cad mRNA: analysed day 6, Fig 1C; for Ccl2 mRNA / Icam-1 mRNA / Vcam-1 mRNA / iNos mRNA / eNos mRNA: Fig 8D; for Gpx4 mRNA / Slc7a11 mRNA: Fig 6F
Description: Total RNA was purified using the RNeasy Mini Kit (Qiagen, Hilden, Germany). Reverse transcriptase (RT) reaction was performed with the HighCapacity cDNA Reverse Transcription Kit (Applied Biosystems, Darmstadt, Germany) using 900–2000 ng of RNA. Quantitative RT-qPCR analysis was performed using following conditions: (1) 95 °C–10 min; (2) 45 amplification cycles with 95 °C–15 s, 55 °C–15 s, and 72 °C–17 s; (3) 95 °C–1 min, 55 °C–1 min, 65 °C–5 s. If not stated otherwise, analyses were performed in technical triplicates using pooled samples from two independent experiments (each performed with biological duplicates) by use of a CFX96 cycler (BioRad) and the SensiMix SYBR Kit (Bioline, London, UK). The primers used for mRNA expression analyses are listed in Supplementary Table 1. To ensure the specificity of the amplification product, melting curves were recorded at the end of the run. mRNA expression levels were normalized to β-Actin and Gapdh. Relative mRNA expression in mESC or corresponding untreated controls was set to 1.0. Only changes in gene expression of ≤ 0.5- and ≥ 2-fold were considered as biologically relevant.
To monitor prototypical functions of endothelial cells, the uptake of fluorescent 1,1-dioctadecyl-3,3,3,3-tetra-methylindocarbocyanine-labeled acetylated LDL (Dil-acLDL) was examined. Briefly, cells were incubated with Dil-acLDL (10 µg/ml, 4 h, 37 °C). After fixation (3.7% cold formaldehyde/PBS (15 min, RT) nuclei were counterstained with DAPI. The uptake of DiI-acLDL was analyzed by fluorescence microscopy (Olympus BX43, 20x objective). Additionally, the response of differentiated EC to inflammatory cytokines was measured. After treatment with a pro-inflammatory cytokine mixture (TNFα/IL-1β, 10 ng/mL) for 1 h, mRNA expression of activated EC markers E-selectin, Icam-1, Vcam-1, Ccl2, eNos, iNos was analyzed (RT-qPCR).

EC d4 [5] = assay: Nuclear γH2AX / 53BP1 foci (DSB); details: EC d4 48 h, equitoxic concentrations
Description: (§1) DNA double-strand breaks were monitored by immunocytochemical detection of nuclear γH2AX and 53BP1 foci. Cells were fixed with 3.7% formaldehyde/PBS (15 min, RT) and permeabilized (0.3% TritonX/PBS; 15 min, RT). […] Cell suspension was mixed with 0.5% low melting point agarose and applied onto glass slides coated with 1.5% agarose. After lysis in alkaline buffer (pH 10, 1 h, 4 °C, protected from light) and DNA denaturation in precooled electrophoresis buffer (pH > 13, 25 min, 4 °C, protected from light) electrophoresis was performed (300 mA, 25 V, 4 °C, 25 min).

mESC = assay: Nuclear γH2AX / 53BP1 foci (DSB); details: mESC 24 h, equitoxic concentrations
Description: as §1

[6] = EC d4 + 0.005 µM 48 h, analysed in EC d6
[7] = EC d4 + 0.005 µM 48 h, then + I/T (IL-1β/TNFα 10 ng/ml, 1 h)
[8] = EC d4 + 0.05 µM 48 h, analysed in EC d6
[9] = EC d4 + 0.05 µM 48 h, then + I/T (IL-1β/TNFα 10 ng/ml, 1 h)

COc1cccc2c1C(=O)c1c(O)c3c(c(O)c1C2=O)C[C@@](O)(C(=O)CO)C[C@@H]3O[C@H]1C[C@H](N)[C@H](O)[C@H](C)O1 [Dox, doxorubicin]
ZO1 assembly in treated EC d6 (EC d6 [1]): clearly visible gaps
mitochondrial membrane potential (EC d6 [2]): significantly reduced
VE-cadherin cell-cell junctions in EC d6 differentiated from treated EC d4 (EC d4 [3]): disturbed
Flk1 mRNA ([4]; EC d4 + 0.005 µM 48 h): 18.23 Fold of mESC
Nanog mRNA ([4]; EC d4 + 0.005 µM 48 h): 0.03 Fold of mESC
Oct4 mRNA ([4]; EC d4 + 0.005 µM 48 h): 0.02 Fold of mESC
Pecam1 mRNA ([4]; EC d4 + 0.005 µM 48 h): 0.78 Fold of mESC
Tie1 mRNA ([4]; EC d4 + 0.005 µM 48 h): 90.91 Fold of mESC
VE-cad mRNA ([4]; EC d4 + 0.005 µM 48 h): 653.73 Fold of mESC
Ccl2 mRNA [4, 6]: 2.40 Fold of untreated control
Icam-1 mRNA [4, 6]: 3.06 Fold of untreated control
Vcam-1 mRNA [4, 6]: 0.44 Fold of untreated control
iNos mRNA [4, 6]: 4.75 Fold of untreated control
Ccl2 mRNA [4, 7]: 242.22 Fold of untreated control
Icam-1 mRNA [4, 7]: 14.94 Fold of untreated control
Vcam-1 mRNA [4, 7]: 1.13 Fold of untreated control
eNos mRNA [4, 7]: 157.09 Fold of untreated control
iNos mRNA [4, 7]: 4.95 Fold of untreated control
Atp7a mRNA ([4]; EC d4 + 0.005 µM 48 h, Fig 2D): 1.11 Fold of control
Ctr2 mRNA ([4]; EC d4 + 0.005 µM 48 h, Fig 2D): 1.25 Fold of control
Mdr1 mRNA ([4]; EC d4 + 0.005 µM 48 h, Fig 2D): 1.46 Fold of control
Mrp1 mRNA ([4]; EC d4 + 0.005 µM 48 h, Fig 2D): 1.32 Fold of control
Oct2 mRNA ([4]; EC d4 + 0.005 µM 48 h, Fig 2D): 0.33 Fold of control
Gpx4 mRNA ([4]; EC d4 + 0.005 µM 48 h): 1.07 Fold of untreated control
Slc7a11 mRNA ([4]; EC d4 + 0.005 µM 48 h): 1.71 Fold of untreated control
Cdkn1a mRNA ([4]; EC d4 + 0.005 µM 48 h, Fig 7B): 1.42 Fold of untreated control
Cdkn2a mRNA ([4]; EC d4 + 0.005 µM 48 h, Fig 7B): 1.12 Fold of untreated control
Glb1 mRNA ([4]; EC d4 + 0.005 µM 48 h, Fig 7B): 0.97 Fold of untreated control
Il6 mRNA ([4]; EC d4 + 0.005 µM 48 h, Fig 7B): 0.95 Fold of untreated control
Il8 mRNA ([4]; EC d4 + 0.005 µM 48 h, Fig 7B): 1.26 Fold of untreated control
Tp53 mRNA ([4]; EC d4 + 0.005 µM 48 h, Fig 7B): 0.98 Fold of untreated control
Flk1 mRNA ([4]; EC d4 + 0.05 µM 48 h): 26.95 Fold of mESC
Nanog mRNA ([4]; EC d4 + 0.05 µM 48 h): 0.02 Fold of mESC
Oct4 mRNA ([4]; EC d4 + 0.05 µM 48 h): 0.02 Fold of mESC
Pecam1 mRNA ([4]; EC d4 + 0.05 µM 48 h): 1.42 Fold of mESC
Tie1 mRNA ([4]; EC d4 + 0.05 µM 48 h): 146.88 Fold of mESC
VE-cad mRNA ([4]; EC d4 + 0.05 µM 48 h): 1297.80 Fold of mESC
Ccl2 mRNA [4, 8]: 23.54 Fold of untreated control
Icam-1 mRNA [4, 8]: 53.37 Fold of untreated control
Vcam-1 mRNA [4, 8]: 0.085 Fold of untreated control
eNos mRNA [4, 8]: 239.30 Fold of untreated control
iNos mRNA [4, 8]: 3.20 Fold of untreated control
Ccl2 mRNA [4, 9]: 2314.32 Fold of untreated control
Icam-1 mRNA [4, 9]: 154.74 Fold of untreated control
Vcam-1 mRNA [4, 9]: 0.39 Fold of untreated control
eNos mRNA [4, 9]: 234.32 Fold of untreated control
iNos mRNA [4, 9]: 3.41 Fold of untreated control
Atp7a mRNA ([4]; EC d4 + 0.05 µM 48 h, Fig 2D): 1.81 Fold of control
Atp7b mRNA ([4]; EC d4 + 0.05 µM 48 h, Fig 2D): 0.54 Fold of control
Ctr2 mRNA ([4]; EC d4 + 0.05 µM 48 h, Fig 2D): 1.38 Fold of control
Mdr1 mRNA ([4]; EC d4 + 0.05 µM 48 h, Fig 2D): 105.13 Fold of control
Mrp1 mRNA ([4]; EC d4 + 0.05 µM 48 h, Fig 2D): 1.43 Fold of control
Oct2 mRNA ([4]; EC d4 + 0.05 µM 48 h, Fig 2D): 0.53 Fold of control
Brca1 mRNA ([4]; EC d4 + 0.05 µM 48 h, Fig 5C): 0.25 Fold of mESC
Chk1 mRNA ([4]; EC d4 + 0.05 µM 48 h, Fig 5C): 0.34 Fold of mESC
Rad51 mRNA ([4]; EC d4 + 0.05 µM 48 h, Fig 5C): 0.27 Fold of mESC
Pgc1a mRNA ([4]; EC d4 + 0.05 µM 48 h, Fig 6D): 24.33 Fold of untreated control
Gpx4 mRNA ([4]; EC d4 + 0.05 µM 48 h): 1.35 Fold of untreated control
Slc7a11 mRNA ([4]; EC d4 + 0.05 µM 48 h): 3.43 Fold of untreated control
Cdkn1a mRNA ([4]; EC d4 + 0.05 µM 48 h, Fig 7B): 4.89 Fold of untreated control
Cdkn2a mRNA ([4]; EC d4 + 0.05 µM 48 h, Fig 7B): 3.09 Fold of untreated control
Glb1 mRNA ([4]; EC d4 + 0.05 µM 48 h, Fig 7B): 1.54 Fold of untreated control
Il6 mRNA ([4]; EC d4 + 0.05 µM 48 h, Fig 7B): 1.91 Fold of untreated control
Il8 mRNA ([4]; EC d4 + 0.05 µM 48 h, Fig 7B): 25.17 Fold of untreated control
Cldn5 mRNA ([4]; EC d4 + 0.05 µM 48 h, Fig 8C): 1.35 Fold of EC d4 or d6
Ocln mRNA ([4]; EC d4 + 0.05 µM 48 h, Fig 8C): 1.78 Fold of EC d4 or d6
Tjp1 mRNA ([4]; EC d4 + 0.05 µM 48 h, Fig 8C): 2.10 Fold of EC d4 or d6
Ldlr mRNA ([4]; EC d4 + 0.05 µM 48 h, Fig 8F): 0.45 Fold of untreated control
DSB numbers (γH2AX / 53BP1 foci) (EC d4 [5]): clear increase
nuclear γH2AX foci (mESC): significant increase
